Measurements reported in patent US12599614B2, “Methods and pharmaceutical compositions for the treatment and prophylaxis of microbial infectious diseases and associated inflammatory disorders and for the treatment and prophylaxis of aging and associated diseases” (MD VAULT LLC, priority 2020, dated 2026).

Assays:
[1] = test system: 1 year-old aged diabetic mice; assay: Tissue regeneration in 1 year-old aged diabetic mice, oral gavage; format: in vivo; conditions: single agent: X alone 20 mg/kg or Y alone 4 mg/kg, daily oral gavage, 6 weeks
[2] = test system: 1 year-old aged mice treated with intratracheal bleomycin; assay: Bleomycin lung fibrosis in aged mice (COPD/IPF model); format: in vivo; conditions: daily oral gavage over 3 weeks; intratracheal bleomycin 3 mg/kg
Procedure: Daily oral gavage of the drug combination X and Y, relative to X alone or Y alone or the vehicle over 3 weeks, led to decreases in aging-associated lung fibrosis in 1 year-old aged mice treated with intratracheal bleomycin (3 mg/kg in 50 ul phosphate buffered saline or PBS) to model chronic obstructive pulmonary disease (COPD) and idiopathic pulmonary fibrosis (IPF).

[3] = test system: adult female rats (PCOS model); assay: Estrus cycles in DHEA/diet PCOS rat model; format: in vivo; conditions: daily oral gavage over 6 weeks; DHEA 60 mg/kg sc and high fat-high sugar-high cholesterol diet
Procedure: Daily oral gavage of the drug combination X and Y, relative to X alone or Y alone or the vehicle over 6 weeks, led to restoration of estrus cycles in adult female rats treated with subcutaneous dehydroepiandrosterone (DHEA; 60 mg/kg body weight) and fed with a high fat-high sugar-high cholesterol diet ad libitum to model premature ovarian aging in polycystic ovary syndrome (PCOS).

[4] = test system: primary human skeletal muscle cells; assay: Metabolism and gene pathway profiling of muscle cells; format: cell-based; conditions: single agent: X alone 100 mg/L or Y alone 2 mg/L
Procedure: Calorie restriction is known to ameliorate the effects of aging, by altering cellular bioenergetic stress and promoting mitochondrial activity, the unfolded protein response (UPR), the secretion of beneficial cytokines, and an increase in stem cell regeneration. To test how the drug combination X and Y mimics the effects of calorie restriction (CR), we profiled the metabolism of primary human skeletal muscle cells at passage 15 treated with X (100 mg/L) and Y (2 mg/L), compared to X alone (100 mg/L) or Y alone (2 mg/L).

2-year-old aged mice = assay: Senescence biomarkers in tissues of aged mice; format: in vivo; conditions: aged liver, muscle and skin tissues; ip 20 mg/kg X and/or 4 mg/kg Y daily for 30 days; vs DMSO vehicle; P<0.01
Procedure: To test if the drugs X and Y may reduce senescence in the tissues of aged mice, we intraperitoneally injected 2-year-old aged mice (n=10/group) with 20 mg/kg of X, or 4 mg/kg of Y, or both 20 mg/kg of X and 4 mg/kg of Y, relative to the DMSO vehicle control, on a daily basis for 30 days. Staining of liver, muscle and skin tissue sections for SA-β-gal activity was performed using the Senescence β-Galactosidase Staining Kit (Cell Signaling Technology) according to manufacturer's protocols. Protein expression of p16INK4A and H3K9me3 were evaluated by densitometric quantification of Westem blots of the liver, muscle and skin tissue samples.

CC(=O)Oc1ccccc1C(=O)O [X, 2-acetoxybenzoic acid]
beneficial anti-aging effects seen with X and Y (liver, β islet, hair, wound, muscle regeneration, body mass) [1]: None of these beneficial anti-aging effects were observed
lung fibrosis (% fibrotic area, Masson trichrome staining, ImageJ) [2]: None of these beneficial anti-aging effects were observed
estrus cycles (vaginal smear analysis) [3]: all of the rats were frozen in either the estrus or proestrus stages
beneficial anti-aging effects seen with X and Y (ATP, acetyl-CoA, acetylation, Pink1, mitochondrial protein and DNA, UPR, ROS, cytokine and stem cell pathways) [4]: None of these beneficial anti-aging effects were observed
SA-β-gal activity staining (senescence biomarker) (2-year-old aged mice): but not X alone or Y alone

COc1ccc(CN2CCNCC2)c(OC)c1OC [Y, 1-[(2,3,4-trimethoxyphenyl)methyl]piperazine]
beneficial anti-aging effects seen with X and Y (liver, β islet, hair, wound, muscle regeneration, body mass) [1]: None of these beneficial anti-aging effects were observed
lung fibrosis (% fibrotic area, Masson trichrome staining, ImageJ) [2]: None of these beneficial anti-aging effects were observed
estrus cycles (vaginal smear analysis) [3]: all of the rats were frozen in either the estrus or proestrus stages
beneficial anti-aging effects seen with X and Y (ATP, acetyl-CoA, acetylation, Pink1, mitochondrial protein and DNA, UPR, ROS, cytokine and stem cell pathways) [4]: None of these beneficial anti-aging effects were observed
SA-β-gal activity staining (senescence biomarker) (2-year-old aged mice): but not X alone or Y alone
